In article PMC9779727, “Identification of Novel Artemisinin Hybrids Induce Apoptosis and Ferroptosis in MCF-7 Cells” (International Journal of Molecular Sciences, 2022):

How the values were obtained:
MCF-7 cells [1] = test: Cell colony formation assay; type: cell-based, human; details: 12 d
Procedure: We chose a cell colony formation assay to determine the antiproliferative effect of the compound more intuitively.
MCF-7 cells were seeded into 6-well plates at 37 °C with 5% CO2 for 24 h and then treated with compound A8 at various concentrations (0, 2.5, 5 and 10 μM), ART (10 μM) and 5-FU (10 μM) for 12 d. Then, cells were stained with Giemsa and clones number were counted directly with naked eyes.

[2] = tested on: breast cancer MCF-7 cells; test: MTT antiproliferation assay, MCF-7; type: cell-based, human; details: 48 h, means ± SD, n = 3
Description: The target hybrids A1–A15 were screened for their antiproliferation activities against five human cancer cell lines (lung cancer A549 cells, breast cancer MCF-7 and MDA-MB-231 cells, colon cancer HCT116 cells and ovarian cancer SK-OV-3 cells) in vitro by the standard MTT method, and 5-fluorouracil (5-FU) and ART were coassayed as controls. […] Therefore, the most promising hybrid, A8, was chosen for further exploration of the preliminary mechanism of MCF-7 cell antiproliferation.
Cytotoxicity of test compounds against five different tumor cell lines were evaluated using an MTT assay in vitro. Cells were seeded into 96-well plates at a density of 5 × 10^4 cells per well and stabilized at 37 °C with 5% CO2 for 24 h. Compounds A1–A15, ART and 5-FU were added to each well at various concentrations and then the cells were incubated for 48 h. The MTT solution (100 μL 0.5 mg/mL^−1) was added to each well, and the cells were incubated for another 4 h. Then, 150 μL DMSO was added to each well and the absorbance of samples was measured at 492 nm. The IC50 values were calculated according to Logit method after getting the inhibitory rate.

MCF-7 cells [3] = test: GSH level detection; type: cell-based, human
Description: We also determined the effect of A8 on the expression of GSH and MDA (lipid peroxidation).
Lipid peroxidation assay kit (Beyotime, Shanghai, China) was used to detect malonaldehyde (MDA), together with GSH level assay, present in samples, as per the manufacturer’s instruction with slight modifications.

CYP1A2 = molecular target: T1, CYP1A2 (Homo sapiens, UniProt P05177); test: CYPs inhibition assay, CYP1A2; type: in vitro ADME
T1 construct: from tissue; host or cells: human liver microsomes
T1 sequence (P05177 1-516): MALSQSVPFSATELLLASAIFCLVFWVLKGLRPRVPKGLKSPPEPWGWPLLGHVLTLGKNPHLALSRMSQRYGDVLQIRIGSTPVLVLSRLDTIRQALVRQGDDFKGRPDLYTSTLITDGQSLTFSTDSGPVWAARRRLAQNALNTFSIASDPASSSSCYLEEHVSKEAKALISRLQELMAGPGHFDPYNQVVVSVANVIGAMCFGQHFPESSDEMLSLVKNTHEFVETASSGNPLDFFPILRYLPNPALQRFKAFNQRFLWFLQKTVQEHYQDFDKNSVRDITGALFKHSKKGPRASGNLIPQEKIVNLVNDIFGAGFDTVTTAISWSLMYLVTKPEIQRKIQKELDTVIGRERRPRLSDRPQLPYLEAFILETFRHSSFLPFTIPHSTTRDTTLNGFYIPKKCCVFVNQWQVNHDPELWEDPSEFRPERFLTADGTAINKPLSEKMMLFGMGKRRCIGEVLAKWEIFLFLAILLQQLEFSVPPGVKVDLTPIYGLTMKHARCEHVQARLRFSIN
Procedure: (§1) Finally, we evaluated the interaction between the hybrid A8 and five major metabolic enzymes (CYP1A2, CYP2C9, CYP2C19, CYP2D6 and CYP3A4) in the human body. […] It is also one of the directions for our further transformation and optimization.
(§2) Cytochrome P450 inhibition was evaluated in human liver microsomes (0.253 mg/mL) using five […] (CYP1A2, α-Naphthoflavone; CYP2C9, Sulfaphenazole; CYP2C19, Benzylnirvanol; CYP2D6, Quinidine; and CYP3A4, Ketoconazole.) in the presence of compound A8 (10 μM). After preincubation for 10 min at 37 °C, an NADPH-regenerating system was added. After the mixed system was incubated for 15 min at 37 °C, the reaction was stopped by adding 400 μL of cold stop solution (200 ng/mL tolbutamide and 200 ng/mL labetalol in acetonitrile). Then, the mixture was centrifuged, and the supernatant was analyzed by LC-MS/MS.

MCF-7 cells [4] = test: TUNEL staining; type: cell-based, human; details: MCF-7, varying concentrations
Procedure: (§3) To investigate whether hybrid A8 exerts an antitumor effect on MCF-7 cells by inducing apoptosis, an annexin V-FITC/PI binding assay was performed. MCF-7 cells were treated with vehicle or various concentrations (2.5, 5 and 10 μM) of hybrid A8 for 48 h and were then stained with FITC-annexin V and propidium iodide (PI). The percentages of apoptotic MCF-7 cells were determined by flow cytometry. A8-induced apoptosis in a dose-dependent manner. The percentages of total apoptotic cells (Q1-UR + Q1-LR) were 17.99% (2.5 μM), 35.98% (5 μM) and 48.65% (10 μM). […] In addition, obvious changes in cell morphology were also observed.
The slides were immersed in 4% paraformaldehyde (pH 7.4) for 25 min at room temperature and then washed with PBS 3 times. The cells were immersed in 0.1% Triton X-100 solution prepared with PBS for 10 min (operation on ice) and then washed twice with PBS. Dilute 5 × equilibration buffer with deionized water and 100 μL 1 × equilibration buffer was added to each climbing tablet to cover the sample area to be tested, then incubated at room temperature for 15 min. […] The water-absorbent paper was used to absorb the liquid on the climbing sheet, and the sealing liquid containing anti fluorescence quenching agent was used to seal the film, and then the images were observed and collected under the fluorescence microscope.

CYP2C19 = molecular target: T2, CYP2C19 (Homo sapiens, UniProt P33261); test: CYPs inhibition assay, CYP2C19; type: in vitro ADME; details: human liver microsomes
T2 construct: from tissue; host or cells: human liver microsomes
Procedure: as §1, §2

MCF-7 cells [5] = test: Annexin V-FITC/PI apoptosis assay (flow cytometry); type: cell-based, human; details: 48 h
Procedure: as §3
Cells apoptosis was assessed using Annexin V/PI staining assay. MCF-7 cells were seeded into 6-well plates for 24 h and then treated with compound A8 at various concentrations (0, 2.5, 5 and 10 μM) for 48 h. Then, cells were collected, washed with 500 μL annexin-binding buffer and stained with 5 μL annexin V-FITC and 5 μL PI for 15 min at 25 °C. After that, the samples were analyzed by flow cytometry (Beckman Coulter cytoFLEX, Brea, CA, USA).

T2 sequence (P33261 whole entry): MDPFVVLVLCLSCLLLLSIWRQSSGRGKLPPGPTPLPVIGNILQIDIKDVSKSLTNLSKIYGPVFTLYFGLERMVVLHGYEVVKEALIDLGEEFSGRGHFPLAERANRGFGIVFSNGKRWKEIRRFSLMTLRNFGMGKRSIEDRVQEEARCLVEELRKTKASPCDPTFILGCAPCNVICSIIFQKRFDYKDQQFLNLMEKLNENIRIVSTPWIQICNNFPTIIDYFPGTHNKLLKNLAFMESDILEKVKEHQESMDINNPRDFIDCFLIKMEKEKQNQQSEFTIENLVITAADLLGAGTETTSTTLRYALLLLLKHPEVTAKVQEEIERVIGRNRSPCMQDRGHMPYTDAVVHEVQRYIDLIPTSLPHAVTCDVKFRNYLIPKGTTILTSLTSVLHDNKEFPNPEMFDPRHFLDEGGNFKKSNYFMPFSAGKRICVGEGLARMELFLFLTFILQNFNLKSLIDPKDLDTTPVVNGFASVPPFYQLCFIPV

CC1CCC2C(C)C(OC(=O)CCC(=O)NCc3nnc(Nc4ccc(F)cc4F)o3)OC3OC4(C)CCC1C32OO4 (centres unmarked) [A8]
cell colony number (in words) (MCF-7 cells [1]; MCF-7, 0, 2.5, 5 and 10 μM): decreased in a dose-dependent manner | antiproliferative effect in colony formation compared with controls (in words) (MCF-7 cells [1]; MCF-7, same administration concentration (10 μM)): better than that of 5-FU and ART | IC50 [2]: 4.07 ± 0.05 µM | GSH level (in words) (MCF-7 cells [3]): decreased significantly | inhibitory effect on CYP1A2 (in words) (CYP1A2; 10 μM): moderate inhibitory effect | Inhibition at 10 μM (%) CYP1A2 (CYP1A2; human liver microsomes): 57.1% | number of cells that emitted red fluorescence (apoptotic cells), TUNEL (in words) (MCF-7 cells [4]): increased as the administration concentration increased | Inhibition at 10 μM (%) CYP2C19 (CYP2C19): 12.3% | percentage of total apoptotic cells (Q1-UR + Q1-LR) (MCF-7 cells [5]; MCF-7, 2.5 μM): 17.99% | percentage of total apoptotic cells (Q1-UR + Q1-LR) (MCF-7 cells [5]; MCF-7, 5 μM): 35.98% | percentage of total apoptotic cells (Q1-UR + Q1-LR) (MCF-7 cells [5]; MCF-7, 10 μM): 48.65%
